Source: ChEMBL document CHEMBL1201862, “PubChem BioAssay data set” (2004)
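These data come from cells grown in 96-well plates and exposed to compound for 48 hours at five concentrations. Abbreviation: GI50, concentration required for 50% inhibition of growth.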 Calls of active or inactive are those of the source. Cut-off read from the data, not from the text of the source: active = GI50 up to about 1.1 µM and inactive = higher.

Assays:
Assay in all cases: NCI anticancer screen, dose series, 48 h
[1] = system: 786-0
[2] = system: UACC-257
[3] = system: COLO 205
[4] = system: SW-620
[5] = system: NCI-H460
[6] = system: MOLT-4
[7] = system: SK-MEL-28
[8] = system: NCI-H522
[9] = system: HL-60
[10] = system: TK-10
[11] = system: CCRF-CEM
[12] = system: PC-3
[13] = system: NCI/ADR-RES
[14] = system: SF-539
[15] = system: K562
[16] = system: IGROV-1
[17] = system: HOP-92
[18] = system: SK-OV-3
[19] = system: SK-MEL-2
[20] = system: UACC-62

Row | Structure (SMILES) | GI50 [1] | GI50 [2] | GI50 [3] | GI50 [4] | GI50 [5] | GI50 [6] | GI50 [7] | GI50 [8] | GI50 [9] | GI50 [10] | GI50 [11] | GI50 [12] | GI50 [13] | GI50 [14] | GI50 [15] | GI50 [16] | GI50 [17] | GI50 [18] | GI50 [19] | GI50 [20]
1 | O=c1nc2ccc3sc4ccccc4c(=O)c3n2c(=O)[nH]1 | > 100 µM (inactive) | > 100 µM (inactive) | > 100 µM (inactive) | > 100 µM (inactive) | > 100 µM (inactive) | > 100 µM (inactive) | > 100 µM (inactive) | 73.8 µM (inactive) | 83.4 µM (inactive) | 66.7 µM (inactive) | > 100 µM (inactive) | > 100 µM (inactive) | > 100 µM (inactive) | > 100 µM (inactive) | > 100 µM (inactive) | > 100 µM (inactive) |  |  |  | 
2 | CN(C=O)/C=C/c1cc(O)ccc1O | 18.5 µM (inactive) | 30.3 µM (inactive) | 21.3 µM (inactive) | 12.8 µM (inactive) | > 60.7 µM (inactive) | 10.8 µM (inactive) | > 42.1 µM (inactive) | 4.17 µM (inactive) | 14.2 µM (inactive) | 26.8 µM (inactive) | 18.7 µM (inactive) |  |  | 38.3 µM (inactive) | 24.9 µM (inactive) | 51.3 µM (inactive) | 19.9 µM (inactive) | > 86.1 µM (inactive) | 35.6 µM (inactive) | 31.3 µM (inactive)
3 | COC(=O)C1CCOC(C)N1C(=O)OC(C)(C)C (centres undefined) | > 100 µM (inactive) | > 100 µM (inactive) | > 100 µM (inactive) | > 100 µM (inactive) | > 100 µM (inactive) | > 100 µM (inactive) | > 100 µM (inactive) | > 100 µM (inactive) | > 100 µM (inactive) | > 100 µM (inactive) | > 100 µM (inactive) | > 100 µM (inactive) | > 100 µM (inactive) | > 100 µM (inactive) | > 100 µM (inactive) | > 100 µM (inactive) |  | > 100 µM (inactive) | > 100 µM (inactive) | > 100 µM (inactive)
4 | COc1ccc2nc3cc([N+](=O)[O-])ccc3c(Nc3ccc(S(=O)(=O)NC(C)=O)cc3)c2c1 | 47 µM (inactive) | > 100 µM (inactive) | 51.3 µM (inactive) | 46.8 µM (inactive) | 40.6 µM (inactive) | 29.4 µM (inactive) | > 100 µM (inactive) | 33.2 µM (inactive) | 26.5 µM (inactive) | 53.2 µM (inactive) | 23.9 µM (inactive) | 45.5 µM (inactive) |  | > 100 µM (inactive) | 37.2 µM (inactive) |  | > 100 µM (inactive) | > 100 µM (inactive) | > 100 µM (inactive) | 73.3 µM (inactive)
5 | CNc1ncccc1Nc1cc(=O)n2c3cccnc3n(C)c2c1 | > 100 µM (inactive) | > 100 µM (inactive) | > 100 µM (inactive) | > 100 µM (inactive) | > 100 µM (inactive) | > 100 µM (inactive) | > 100 µM (inactive) | 61 µM (inactive) |  | 53.2 µM (inactive) | > 100 µM (inactive) | 9.51 µM (inactive) | > 100 µM (inactive) | 73.5 µM (inactive) | > 100 µM (inactive) | 34.1 µM (inactive) |  | > 100 µM (inactive) |  | > 100 µM (inactive)
6 | COC(=O)c1cccc2cccc(C(=O)Nc3ccc(C)cc3C)c12 | > 100 µM (inactive) | > 100 µM (inactive) | 69.5 µM (inactive) | > 100 µM (inactive) | > 100 µM (inactive) | 48.5 µM (inactive) | > 100 µM (inactive) | 70.1 µM (inactive) | 1.08 µM (active) | > 100 µM (inactive) | 3.72 µM (inactive) |  |  | 96.4 µM (inactive) | > 100 µM (inactive) | > 100 µM (inactive) | 61.8 µM (inactive) | > 100 µM (inactive) | > 100 µM (inactive) | > 100 µM (inactive)
7 | C[N+]1(C)CCC(C#N)(c2ccccc2)CC1 | > 100 µM (inactive) | > 100 µM (inactive) | > 100 µM (inactive) | > 100 µM (inactive) | > 100 µM (inactive) | > 100 µM (inactive) | > 100 µM (inactive) |  | > 100 µM (inactive) | > 100 µM (inactive) | 0.65 µM (active) |  | > 100 µM (inactive) |  | > 100 µM (inactive) | > 100 µM (inactive) | > 100 µM (inactive) | > 100 µM (inactive) |  | 
8 | C=C1C(=O)OC2/C=C(/C)C3CC(O)C(C)(CC(OC(=O)/C(C)=C/C)C12)O3 (centres undefined) | 3.29 µM (inactive) | 4.25 µM (inactive) | 1.52 µM (inactive) | 1.65 µM (inactive) | 6.18 µM (inactive) | 1.91 µM (inactive) | 2.52 µM (inactive) | 1.6 µM (inactive) | 0.759 µM (active) | 8.24 µM (inactive) | 0.508 µM (active) |  |  | 2.14 µM (inactive) | 1.69 µM (inactive) | 5.26 µM (inactive) | 2.98 µM (inactive) | 36.1 µM (inactive) | 2.49 µM (inactive) | 2.03 µM (inactive)
